Data: DBAASP
Converted amounts (≈) assume the structure as drawn. Blank lines part the entries; values can stand above or below the molecule they belong to.

How the values were obtained:
Experiment in all cases: ≥ marks a high value that may be exact or a test limit, other limits are often not marked, values filed in µg/mL are converted to µM
[1] = tested on: Candida tropicalis IOC 4560
[2] = tested on: Serratia marcescens ATCC 4112
[3] = tested on: Bacillus megaterium ATCC 10778
[4] = tested on: Staphylococcus epidermidis ATCC 12228
[5] = tested on: Enterobacter cloacae beta-12
Micrococcus luteus A270 = tested on: Micrococcus luteus A270
[6] = tested on: Staphylococcus aureus ATCC 29213
Escherichia coli SBS 363 = tested on: Escherichia coli SBS 363
Candida albicans MDM8 = tested on: Candida albicans MDM8
[7] = tested on: Staphylococcus aureus ATCC 25923
[8] = tested on: Staphylococcus aureus ATCC BAA-1683
Escherichia coli = tested on: Escherichia coli
[9] = tested on: Escherichia coli ATCC 25922
[10] = tested on: Pseudomonas aeruginosa ATCC 9027
[11] = tested on: Candida albicans FRR 5580
Escherichia coli K88 = tested on: Escherichia coli K88
[12] = tested on: Salmonella enterica subsp. enterica serovar Typhimurium C77-31
[13] = tested on: Staphylococcus aureus ATCC 43300
[14] = tested on: Pseudomonas aeruginosa ATCC 27853
[15] = tested on: Lacticaseibacillus rhamnosus 1.0911
Escherichia coli UB1005 = tested on: Escherichia coli UB1005
[16] = tested on: Lactiplantibacillus plantarum 8014
[17] = tested on: Salmonella enterica subsp. enterica serovar Pullorum C79-13
[18] = tested on: Lacticaseibacillus rhamnosus 1.0936
[19] = tested on: Lacticaseibacillus rhamnosus 1.0385
[20] = tested on: Salmonella enterica subsp. enterica serovar Typhimurium ATCC 14028
[21] = tested on: Lacticaseibacillus rhamnosus 7469
Escherichia coli K99 = tested on: Escherichia coli K99
[22] = tested on: Acinetobacter baumannii ATCC 19606
[23] = tested on: Pseudomonas aeruginosa FADDI-PA070
[24] = tested on: Staphylococcus aureus VRSA1
[25] = tested on: Staphylococcus aureus NRS 1
[26] = tested on: Streptococcus pneumoniae ATCC 700677
[27] = tested on: Klebsiella pneumoniae ATCC 700603
[28] = tested on: Staphylococcus aureus NRS 17
[29] = tested on: Klebsiella pneumoniae ATCC BAA-2146
[30] = tested on: Staphylococcus aureus VRSA10
[31] = tested on: Staphylococcus aureus SH1000

- MIC [1]: ≥ 50 µM
- MIC [2]: ≥ 50 µM
- MIC [3]: ≥ 50 µM
- MIC [4]: > 50 µM
- MIC [5]: ≥ 50 µM
- MIC (Micrococcus luteus A270): ≥ 50 µM
- MIC [6]: > 50 µM
- MIC (Escherichia coli SBS 363): ≥ 50 µM
- MIC (Candida albicans MDM8): ≥ 50 µM
Compound: CC(C)C[C@H](NC(=O)[C@H](C)NC(=O)CNC(=O)[C@H](CC(C)C)NC(=O)[C@@H](N)Cc1ccccc1)C(=O)N[C@@H](Cc1c[nH]c2ccccc12)C(=O)N[C@@H](CC(N)=O)C(=O)N[C@H](C(=O)N[C@@H](CCCCN)C(=O)N[C@@H](CCCCN)C(=O)N[C@@H](CO)C(=O)N[C@H](C(=O)N[C@@H](Cc1ccccc1)C(N)=O)C(C)C)C(C)C [FLGALWNVKKSVF]

- MIC [7]: 21.7 µM (≈ 31.2 µg/mL)
- MIC [8]: ≥ 43.3 µM
- MIC (Escherichia coli): 173 µM (≈ 250 µg/mL)
Compound: CC(C)C[C@H](NC(=O)[C@H](CC(C)C)NC(=O)[C@H](CCCCN)NC(=O)[C@H](Cc1c[nH]c2ccccc12)NC(=O)[C@H](Cc1c[nH]c2ccccc12)NC(=O)[C@@H](N)CCCCN)C(=O)N[C@@H](CCCN=C(N)N)C(=O)N[C@@H](CCCCN)C(=O)N[C@@H](CCCCN)C(=O)N[C@@H](CCCN=C(N)N)C(N)=O [KWWKLLRKKR]

- MIC [7]: 65.2 µM (≈ 250 µg/mL)
- MIC [9]: 65.2 µM (≈ 250 µg/mL)
- MIC [10]: > 65.2 µM
- MIC [11]: ≥ 32.6 µM
Compound: CC(C)[C@H](NC(=O)[C@@H]1CCCN1C(=O)[C@H](Cc1ccccc1)NC(=O)[C@H](CCCCN)NC(=O)CNC(=O)[C@H](CCCCN)NC(=O)[C@H](Cc1c[nH]c2ccccc12)NC(=O)[C@H](Cc1c[nH]c2ccccc12)NC(=O)[C@H](CCCCN)NC(=O)[C@H](Cc1c[nH]c2ccccc12)NC(=O)[C@H](Cc1c[nH]c2ccccc12)NC(=O)[C@H](CCCN=C(N)N)NC(=O)[C@H](Cc1c[nH]c2ccccc12)NC(=O)[C@@H](NC(=O)[C@@H](NC(=O)[C@@H]1CCCN1C(=O)[C@@H](N)Cc1ccccc1)C(C)C)[C@@H](C)O)C(=O)N[C@H](C(=O)N[C@@H](Cc1c[nH]c2ccccc12)C(=O)N[C@@H](CCCN=C(N)N)C(=O)N[C@@H](Cc1c[nH]c2ccccc12)C(=O)N[C@@H](Cc1c[nH]c2ccccc12)C(=O)N[C@@H](CCCCN)C(=O)N[C@@H](Cc1c[nH]c2ccccc12)C(=O)N[C@@H](Cc1c[nH]c2ccccc12)C(=O)N[C@@H](CCCCN)C(=O)NCC(=O)O)[C@@H](C)O [FPVTWRWWKWWKGKFPVTWRWWKWWKG]

- MIC (Escherichia coli K88): ≥ 64 µM
- MIC [12]: ≥ 64 µM
- MIC [7]: > 64 µM
- MIC [13]: > 64 µM
- MIC [14]: > 64 µM
- MIC [15]: ≥ 64 µM
- MIC (Escherichia coli UB1005): ≥ 64 µM
- MIC [9]: > 64 µM
- MIC [17]: ≥ 64 µM
- MIC [18]: ≥ 64 µM
- MIC [6]: > 64 µM
- MIC [19]: ≥ 64 µM
- MIC [20]: > 64 µM
- MIC [21]: ≥ 64 µM
- MIC (Escherichia coli K99): ≥ 64 µM
Compound: C[C@H](NC(=O)[C@H](C)NC(=O)[C@H](Cc1c[nH]c2ccccc12)NC(=O)[C@H](Cc1c[nH]c2ccccc12)NC(=O)[C@H](Cc1c[nH]c2ccccc12)NC(=O)[C@H](CCCN=C(N)N)NC(=O)[C@@H]1CSSC[C@H](N)C(=O)N[C@@H](C)C(=O)N[C@@H](CO)C(=O)N[C@@H](Cc2ccc(O)cc2)C(=O)N[C@@H](Cc2ccccc2)C(=O)N1)C(N)=O [CASYFCRWWWAA]
- MIC [16]: ≥ 64 µM

- MIC [22]: > 9.6 µM
- MIC [13]: > 9.6 µM
- MIC [14]: > 9.6 µM
- MIC [9]: > 9.6 µM
- MIC [23]: 9.6 µM (≈ 23.6 µg/mL)
- MIC [24]: 9.6 µM (≈ 23.6 µg/mL)
- MIC [25]: 9.6 µM (≈ 23.6 µg/mL)
- MIC [26]: 9.6 µM (≈ 23.6 µg/mL)
- MIC [27]: > 9.6 µM
- MIC [28]: 9.6 µM (≈ 23.6 µg/mL)
- MIC [29]: 9.6 µM (≈ 23.6 µg/mL)
- MIC [30]: 9.6 µM (≈ 23.6 µg/mL)
Compound: CC[C@H](C)[C@H](NC(=O)[C@@H](N)CC(C)C)C(=O)NCC(=O)N[C@@H](CC(C)C)C(=O)N[C@H](C(=O)N[C@@H](CO)C(=O)N[C@@H](CCCCN)C(=O)NCC(=O)N[C@H](C(=O)N[C@H]1CSSC[C@@H](C(=O)N[C@@H](CCCCN)C(=O)N[C@@H](CCCCN)C(=O)N[C@H](C(=O)N[C@@H](CC(C)C)C(=O)N[C@@H](CCCCN)C(=O)N[C@@H](CCC(N)=O)C(N)=O)C(C)C)NC(=O)[C@H](C(C)C)NC(=O)[C@H]([C@@H](C)O)NC(=O)[C@H](CCCCN)NC(=O)[C@H](C(C)C)NC(=O)[C@H](CC(C)C)NC(=O)[C@H](C(C)C)NC1=O)[C@@H](C)O)C(C)C [LIGLVSKGTCVLVKTVCKKVLKQ]

- MIC [31]: ≥ 100 µM
Compound: CC(C)C[C@H](NC(=O)[C@H](CC(C)C)NC(=O)[C@H](CCCCN)NC(=O)[C@H](CC(C)C)NC(=O)[C@H](CC(C)C)NC(=O)[C@H](CCCCN)NC(=O)[C@H](CCCCN)NC(=O)[C@H](CC(C)C)NC(=O)[C@H](CC(C)C)NC(=O)[C@H](CCCCN)NC(=O)[C@H](CC(C)C)NC(=O)[C@H](CC(C)C)NC(=O)[C@@H](N)CCCCN)C(=O)NCC(N)=O [KLLKLLKKLLKLLG]
